Laboratory results taken from patent US10897901B2, “Herbicidal composition” (FMC Corporation, priority 2007, dated 2021).

What was measured:
Assay type in all cases: in vivo
[1] = test system: Smooth Crabgrass (Digitaria ischaemum); assay: Example 1 post-emergent turf plot test, 3 leaf/2 tiller crabgrass
Experimental: (§1) The experimental design used randomized plots with post-emergent treatment and three replications per test trial. The size of each experimental plot was 4 feet by 6 feet. The application of each test composition was performed with pressurized back-pack sprayers, calibrated to spray 200 gallons per acre. Test compositions containing sulfentrazone (DISMISS™ Turf Herbicide), quniclorac, (FACET® 75 DF herbicide) or a mixture of sulfentrazone and quinclorac in a 1:3 ratio, prepared as described above, were diluted with water to provide the appropriate test rate concentrations.
(§2) The control of weeds was evaluated in each experimental plot from 7 to 41 days after treatment (DAT) of each test rate. The results, shown as an average of the replications, were compared with results observed in untreated control plots in the same trials.

[2] = test system: White Clover (Trifolium repens); assay: Example 1 post-emergent turf plot test, clover
Experimental: as §1, §2

[3] = test system: Yellow Nutsedge (Cyperus esculentus); assay: Example 1 post-emergent turf plot test, nutsedge
Experimental: as §1, §2

[4] = test system: Blackseed Plantain (Plantago rugelii); assay: Example 1 post-emergent turf plot test, plantain
Experimental: as §1, §2

[5] = test system: White Clover (Trifolium repens); assay: Example 2 post-emergent turf plot test, clover
Experimental: (§3) The experimental design used randomized plots with post-emergent treatment and three replications per test trial. The size of each experimental plot was 4 feet by 6 feet. The application of each test composition was performed with pressurized back-pack sprayers, calibrated to spray 200 gallons per acre. Test compositions containing sulfentrazone (DISMISS™ Turf Herbicide), quinclorac, (FACET® 75 DF herbicide) or a mixture of sulfentrazone and quinclorac in a one to three ratio, prepared as described above, were diluted with water to provide the appropriate test rate concentrations.
(§4) The control of weeds was evaluated in each experimental plot from 1 to 27 days after treatment (DAT) of each test rate. The results, shown as an average of the replications, were compared with results observed in untreated control plots in the same trials.

[6] = test system: Yellow Nutsedge (Cyperus esculentus); assay: Example 2 post-emergent turf plot test, nutsedge
Experimental: as §3, §4

[7] = test system: Redroot Pigweed (Amaranthus retroflexus); assay: Example 4 post-emergence greenhouse pot test, pigweed
Experimental: (§5) Test compositions containing sulfentrazone (75 DF formulation), quniclorac, (DRIVE® 75 DF Herbicide) or mixtures of sulfentrazone and quinclorac at ratios of 1:1 to 1:5, were diluted with water to provide the appropriate test rate concentrations. A nonionic surfactant (0.25%) was added to each test solution. The test weeds include crabgrass (Digitaria sp), Chickweed (Stellaria media), Hemp Sesbania (Sesbania exaltata), Kochia (Kochia scoparia), Ivyleaf Morningglory (Ipomoea hederacea), Redroot Pigweed (Amaranthus retroflexus) and yellow nutsedge (Cyperus esculentusi).
(§6) For post-emergence testing, three disposable 3 inch square pots for each rate of application of each herbicide were filled with a soil, comprised of peat moss, vermiculite, bark ash, pine bark, limestone and a wetting agent, to which 8 to 10 seeds were planted. The pots were placed in a greenhouse and watered daily, thus allowing the seeds to germinate and the foliage to develop for 22 days, 3 months for Kochia.
(§7) Pots designated for treatment were placed on a conveyor belt and the conveyor belt fed under a spray nozzle mounted about ten inches above the foliage. The spray of herbicidal solution was commenced and once stabilized; the pots were passed under the spray at a speed to receive a coverage equivalent of 30 gallons per acre. The application rates are those shown in Table 4 below for the individual herbicidal solutions and the mixture of sulfentrazone and quinclorac. The post-emergence pots were immediately placed in the green-house and not watered until 24 hours after treatment with the test solution. Thereafter they were regularly watered at ground level. The control of weeds was evaluated in each experimental test from 2 to 20 days after treatment (DAT). The results, shown as an average of the replications, were compared with results observed in untreated control pots in the same tests.
(§8) Percent control was determined by a method similar to the 0 to 100 rating system disclosed in “Research Methods in Weed Science,” 2nd ed., B. Truelove, Ed.; Southern Weed Science Society; Auburn University, Auburn, Ala., 1977.

[8] = test system: yellow nutsedge (Cyperus esculentusi); assay: Example 4 post-emergence greenhouse pot test, nutsedge
Experimental: as §5, §6, §7, §8

Which results are given for Cc1nn(-c2cc(NS(C)(=O)=O)c(Cl)cc2Cl)c(=O)n1C(F)F [A, N-[2,4-dichloro-5-[4-(difluoromethyl)-4,5-dihydro-3-methyl-5-oxo-1H-1,2,4-triazol-1-yl]phenyl]methanesulfonamide]?
Percent Control ([1]; 0.57 lb ai/acre, 7 DAT): 70%; Percent Control ([1]; 0.57 lb ai/acre, 14 DAT): 78%; Percent Control ([1]; 0.57 lb ai/acre, 21 DAT): 86%; Percent Control ([1]; 0.57 lb ai/acre, 28 DAT): 75%; Percent Control ([1]; 0.57 lb ai/acre, 41 DAT): 71%; Percent Control ([2]; 0.57 lb ai/acre, 7 DAT): 59%; Percent Control ([2]; 0.57 lb ai/acre, 14 DAT): 63%; Percent Control ([2]; 0.57 lb ai/acre, 21 DAT): 59%; Percent Control ([2]; 0.57 lb ai/acre, 28 DAT): 52%; Percent Control ([3]; 0.57 lb ai/acre, 7 DAT): 50%; Percent Control ([3]; 0.57 lb ai/acre, 14 DAT): 75%; Percent Control ([3]; 0.57 lb ai/acre, 21 DAT): 89%; Percent Control ([3]; 0.57 lb ai/acre, 28 DAT): 91%; Percent Control ([4]; 0.57 lb ai/acre, 7 DAT): 83%; Percent Control ([4]; 0.57 lb ai/acre, 14 DAT): 88%; Percent Control ([4]; 0.57 lb ai/acre, 21 DAT): 100%; Percent Control ([4]; 0.57 lb ai/acre, 28 DAT): 100%; Percent Control ([5]; 0.57 lb ai/acre, 7 DAT): 45%; Percent Control ([5]; 0.57 lb ai/acre, 14 DAT): 74%; Percent Control ([5]; 0.57 lb ai/acre, 21 DAT): 68%; Percent Control ([6]; 0.57 lb ai/acre, 7 DAT): 100%; Percent Control ([6]; 0.57 lb ai/acre, 14 DAT): 100%; Percent Control ([6]; 0.57 lb ai/acre, 21 DAT): 100%; Percent Control ([7]; 0.25 lb ai/acre, 2 DAT): 80%; Percent Control ([7]; 0.25 lb ai/acre, 7 DAT): 95%; Percent Control ([7]; 0.25 lb ai/acre, 14 DAT): 99%; Percent Control ([7]; 0.25 lb ai/acre, 20 DAT): 90%; Percent Control ([8]; 0.25 lb ai/acre, 2 DAT): 25%; Percent Control ([8]; 0.25 lb ai/acre, 7 DAT): 60%; Percent Control ([8]; 0.25 lb ai/acre, 14 DAT): 85%; Percent Control ([8]; 0.25 lb ai/acre, 20 DAT): 95%

With O=C(O)c1c(Cl)ccc2cc(Cl)cnc12 [B, 3,7-dichloro-8-quinolinecarboxylic acid] as the compound, how does the “Percent Control” value ([1]; 0.75 lb ai/acre, 7 DAT) read?
The value was 75%.

And the “Percent Control” value ([1]; 0.75 lb ai/acre, 14 DAT)?
The value was 55%.

And the “Percent Control” value ([1]; 0.75 lb ai/acre, 21 DAT)?
The value was 78%.

And the “Percent Control” value ([1]; 0.75 lb ai/acre, 28 DAT)?
The value was 67%.

And the “Percent Control” value ([1]; 0.75 lb ai/acre, 41 DAT)?
The value was 57%.

And the “Percent Control” value ([2]; 0.75 lb ai/acre, 7 DAT)?
The value was 50%.

And the “Percent Control” value ([2]; 0.75 lb ai/acre, 14 DAT)?
Its value is 50%.

And the “Percent Control” value ([2]; 0.75 lb ai/acre, 21 DAT)?
Its value is 50%.

And the “Percent Control” value ([2]; 0.75 lb ai/acre, 28 DAT)?
The value was 63%.

And the “Percent Control” value ([3]; 0.75 lb ai/acre, 7 DAT)?
The value was 100%.

What about the “Percent Control” value ([3]; 0.75 lb ai/acre, 14 DAT) of the same compound?
Its value is 40%.

And the “Percent Control” value ([3]; 0.75 lb ai/acre, 21 DAT)?
Its value is 10%.

What about the “Percent Control” value ([3]; 0.75 lb ai/acre, 28 DAT) of the same compound?
The value was 13%.

What about the “Percent Control” value ([4]; 0.75 lb ai/acre, 7 DAT) of the same compound?
Its value is 100%.

What about the “Percent Control” value ([4]; 0.75 lb ai/acre, 14 DAT) of the same compound?
Its value is 100%.

What about the “Percent Control” value ([4]; 0.75 lb ai/acre, 21 DAT) of the same compound?
The value was 100%.

What about the “Percent Control” value ([4]; 0.75 lb ai/acre, 28 DAT) of the same compound?
Its value is 100%.

And the “Percent Control” value ([5]; 0.75 lb ai/acre, 7 DAT)?
Its value is 60%.

What about the “Percent Control” value ([5]; 0.75 lb ai/acre, 14 DAT) of the same compound?
The value was 87%.

What about the “Percent Control” value ([5]; 0.75 lb ai/acre, 21 DAT) of the same compound?
Its value is 82%.

And the “Percent Control” value ([6]; 0.75 lb ai/acre, 7 DAT)?
Its value is 83%.

And the “Percent Control” value ([6]; 0.75 lb ai/acre, 14 DAT)?
The value was 54%.

And the “Percent Control” value ([6]; 0.75 lb ai/acre, 21 DAT)?
The value was 37%.

And the Percent Control ([7]; 0.25 lb ai/acre, 2 DAT)?
Its Percent Control is 10%.

And the Percent Control ([7]; 0.25 lb ai/acre, 7 DAT)?
Its Percent Control is 10%.

And the Percent Control ([7]; 0.25 lb ai/acre, 14 DAT)?
The Percent Control was 10%.

What about the Percent Control ([7]; 0.25 lb ai/acre, 20 DAT) of the same compound?
The Percent Control was 10%.

What about the Percent Control ([7]; 0.5 lb ai/acre, 2 DAT) of the same compound?
Its Percent Control is 0%.

And the Percent Control ([7]; 0.5 lb ai/acre, 7 DAT)?
The Percent Control was 0%.

What about the Percent Control ([7]; 0.5 lb ai/acre, 14 DAT) of the same compound?
Its Percent Control is 0%.

What about the Percent Control ([7]; 0.5 lb ai/acre, 20 DAT) of the same compound?
The Percent Control was 0%.

What about the Percent Control ([7]; 0.75 lb ai/acre, 2 DAT) of the same compound?
The Percent Control was 0%.

What about the Percent Control ([7]; 0.75 lb ai/acre, 7 DAT) of the same compound?
Its Percent Control is 0%.

And the Percent Control ([7]; 0.75 lb ai/acre, 14 DAT)?
The Percent Control was 0%.

What about the Percent Control ([7]; 0.75 lb ai/acre, 20 DAT) of the same compound?
Its Percent Control is 0%.

And the Percent Control ([7]; 1.0 lb ai/acre, 2 DAT)?
Its Percent Control is 0%.

What about the Percent Control ([7]; 1.0 lb ai/acre, 7 DAT) of the same compound?
Its Percent Control is 0%.

And the Percent Control ([7]; 1.0 lb ai/acre, 14 DAT)?
Its Percent Control is 0%.

And the Percent Control ([7]; 1.0 lb ai/acre, 20 DAT)?
Its Percent Control is 0%.

What about the Percent Control ([7]; 1.25 lb ai/acre, 2 DAT) of the same compound?
Its Percent Control is 10%.

And the Percent Control ([7]; 1.25 lb ai/acre, 7 DAT)?
Its Percent Control is 10%.

And the Percent Control ([7]; 1.25 lb ai/acre, 14 DAT)?
The Percent Control was 10%.

What about the Percent Control ([7]; 1.25 lb ai/acre, 20 DAT) of the same compound?
The Percent Control was 10%.

And the Percent Control ([8]; 0.25 lb ai/acre, 2 DAT)?
The Percent Control was 0%.

What about the Percent Control ([8]; 0.25 lb ai/acre, 7 DAT) of the same compound?
The Percent Control was 0%.

And the Percent Control ([8]; 0.25 lb ai/acre, 14 DAT)?
Its Percent Control is 0%.

And the Percent Control ([8]; 0.25 lb ai/acre, 20 DAT)?
The Percent Control was 0%.

And the Percent Control ([8]; 0.5 lb ai/acre, 2 DAT)?
Its Percent Control is 0%.

What about the Percent Control ([8]; 0.5 lb ai/acre, 7 DAT) of the same compound?
The Percent Control was 0%.

And the Percent Control ([8]; 0.5 lb ai/acre, 14 DAT)?
Its Percent Control is 0%.

What about the Percent Control ([8]; 0.5 lb ai/acre, 20 DAT) of the same compound?
Its Percent Control is 0%.

And the Percent Control ([8]; 0.75 lb ai/acre, 2 DAT)?
The Percent Control was 0%.

What about the Percent Control ([8]; 0.75 lb ai/acre, 7 DAT) of the same compound?
Its Percent Control is 0%.

And the Percent Control ([8]; 0.75 lb ai/acre, 14 DAT)?
Its Percent Control is 0%.

And the Percent Control ([8]; 0.75 lb ai/acre, 20 DAT)?
The Percent Control was 0%.

And the Percent Control ([8]; 1.0 lb ai/acre, 2 DAT)?
The Percent Control was 0%.

And the Percent Control ([8]; 1.0 lb ai/acre, 7 DAT)?
Its Percent Control is 0%.

And the Percent Control ([8]; 1.0 lb ai/acre, 14 DAT)?
The Percent Control was 0%.

And the Percent Control ([8]; 1.0 lb ai/acre, 20 DAT)?
Its Percent Control is 0%.

And the Percent Control ([8]; 1.25 lb ai/acre, 2 DAT)?
Its Percent Control is 0%.

And the Percent Control ([8]; 1.25 lb ai/acre, 7 DAT)?
The Percent Control was 0%.

What about the Percent Control ([8]; 1.25 lb ai/acre, 14 DAT) of the same compound?
The Percent Control was 0%.

What about the Percent Control ([8]; 1.25 lb ai/acre, 20 DAT) of the same compound?
The Percent Control was 0%.
